According to patent US9113629B2, “4-amino-6-(4-substituted-phenyl)-picolinates and 6-amino-2-(4-substituted-phenyl)-pyrimidine-4-carboxylates and their use as herbicides” (DOW AGROSCIENCES LLC, priority 2013, dated 2015):
Like-named read-outs stand apart in the source and are kept apart here.

Experiments:
[1] = system: Key Grass and Sedge Weeds as well as Grass Crops; experiment: Post-emergent Test II herbicidal activity (Table 6); type: in vivo; settings: post-emergence, 336 h; for pest or weed control at 70 g/ha: application rate 70 g ai/ha; for pest or weed control at 140 g/ha: application rate 140 g ai/ha
In short: (§1)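 Plants grown in Metro-Mix 360 (pH 6.0–6.8) in a greenhouse (~15 h photoperiod, 23–29 °C day) to first or second true leaf stage, then sprayed with compound in acetone/DMSO/aqueous crop-oil-surfactant carrier at 187 L/ha by track sprayer. Injury visually scored 0–100% versus untreated plants after 14 d.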

[2] = system: Key Broadleaf Weed and Crop Species; experiment: Post-emergent Test II herbicidal activity (Table 5); type: in vivo; settings: post-emergence, 336 h, post-emergent, 14 days after application; for pest or weed control at 70 g/ha: 70 g ai/ha; for pest or weed control at 140 g/ha: 140 g ai/ha
In short: as §1

[3] = Triticum aestivum, TRZSS (wheat), read-out: Visual Growth Reduction (%) 14 Days After Application, TRZSS
[4] = CYPES: yellow nutsedge (Cyperus esculentus), read-out: Visual Growth Reduction (%) 14 Days After Application, CYPES
[5] = DIGSA: crabgrass (Digitaria sanguinalis), read-out: Visual Growth Reduction (%) 14 Days After Application, DIGSA
[6] = ECHCG: barnyardgrass (Echinochloa crus-galli), read-out: Visual Growth Reduction (%) 14 Days After Application, ECHCG
[7] = ORYSA: rice (Oryza sativa), read-out: Visual Growth Reduction (%) 14 Days After Application, ORYSA
[8] = SETFA: giant foxtail (Setaria faberi), read-out: Visual Growth Reduction (%) 14 Days After Application, SETFA
[9] = SORVU: grain sorghum (Sorghum vulgare), read-out: Visual Growth Reduction (%) 14 Days After Application, SORVU
[10] = ZEAMX: maize, corn (Zea mays), read-out: Visual Growth Reduction (%) 14 Days After Application, ZEAMX
[11] = ABUTH: velvetleaf (Abutilon theophrasti), read-out: Visual Growth Reduction (%) 14 Days After Application ABUTH
[12] = AMARE: redroot pigweed (Amaranthus retroflexus), read-out: Visual Growth Reduction (%) 14 Days After Application AMARE
[13] = BRSNN: oilseed-rape, canola (Brassica napus), read-out: Visual Growth Reduction (%) 14 Days After Application BRSNN
[14] = CHEAL: lambsquarters (Chenopodium album), read-out: Visual Growth Reduction (%) 14 Days After Application CHEAL
[15] = EPHHL: wild poinsettia (Euphorbia heterophylla), read-out: Visual Growth Reduction (%) 14 Days After Application EPHHL
[16] = HELAN: sunflower (Helianthus annuus), read-out: Visual Growth Reduction (%) 14 Days After Application HELAN
[17] = VIOTR: wild pansy (Viola tricolor), read-out: Visual Growth Reduction (%) 14 Days After Application VIOTR

Nc1c(F)c(-c2cc(F)c(Br)cc2F)nc(C(=O)O)c1Cl [Compound 42, 4-amino-6-(4-bromo-2,5-difluorophenyl)-3-chloro-5-fluoropicolinic acid]
pest or weed control at 70 g/ha [1, 3]: 60 to 74% | pest or weed control at 140 g/ha [1, 3]: 75 to 84% | pest or weed control at 70 g/ha [1, 4]: 95 to 100% | pest or weed control at 140 g/ha [1, 4]: 95 to 100% | pest or weed control at 70 g/ha [1, 5]: 75 to 84% | pest or weed control at 140 g/ha [1, 5]: 85 to 94% | pest or weed control at 70 g/ha [1, 6]: 95 to 100% | pest or weed control at 140 g/ha [1, 6]: 95 to 100% | pest or weed control at 70 g/ha [1, 7]: 30 to 44% | pest or weed control at 140 g/ha [1, 7]: 30 to 44% | pest or weed control at 70 g/ha [1, 8]: 95 to 100% | pest or weed control at 140 g/ha [1, 8]: 95 to 100% | pest or weed control at 70 g/ha [1, 9]: 95 to 100% | pest or weed control at 140 g/ha [1, 9]: 95 to 100% | pest or weed control at 70 g/ha [1, 10]: 75 to 84% | pest or weed control at 140 g/ha [1, 10]: 60 to 74% | pest or weed control at 70 g/ha [2, 11]: 85 to 94% | pest or weed control at 140 g/ha [2, 11]: 95 to 100% | pest or weed control at 70 g/ha [2, 12]: 95 to 100% | pest or weed control at 140 g/ha [2, 12]: 95 to 100% | pest or weed control at 70 g/ha [2, 13]: 95 to 100% | pest or weed control at 140 g/ha [2, 13]: 95 to 100% | pest or weed control at 70 g/ha [2, 14]: 95 to 100% | pest or weed control at 140 g/ha [2, 14]: 95 to 100% | pest or weed control at 70 g/ha [2, 15]: 95 to 100% | pest or weed control at 140 g/ha [2, 15]: 95 to 100% | pest or weed control at 70 g/ha [2, 16]: 95 to 100% | pest or weed control at 140 g/ha [2, 16]: 95 to 100% | pest or weed control at 70 g/ha [2, 17]: 95 to 100% | pest or weed control at 140 g/ha [2, 17]: 95 to 100%
